Source: patent publication US10934302B1, “SHP2 phosphatase inhibitors and methods of use thereof” (Relay Therapeutics, Inc., priority 2018, dated 2021)
pIC50: −log10 of the molar value.

Columns and labels:
[1] = tested on: NCI—H23 (KRAS G12C mutant non-small cell lung cancer cells); experiment: Combination growth inhibition (isobologram), NCI-H23; type: cell-based; details: ARS-1620 (KRAS G12C inhibitor) combined with a SHP2 inhibitor of the instant disclosure, FIG. 2B
[2] = tested on: HuH-7 (hepatocellular carcinoma cells); experiment: Combination growth inhibition (isobologram), HuH-7; type: cell-based; details: AZD-4547 (FGFR inhibitor) combined with a SHP2 inhibitor of the instant disclosure; HuH-7 cells; FIG. 3
SHP2 = SHP2 (Homo sapiens (Human), UniProt Q06124); experiment: SHP2 allosteric inhibition assay (DiFMUP prompt fluorescence); type: biochemical; details: 0.25 nM SHP2 activated with 0.5 μM peptide IRS1_pY1172(dPEG8)pY1222; substrate DiFMUP
SHP2, sequence (Q06124 whole entry): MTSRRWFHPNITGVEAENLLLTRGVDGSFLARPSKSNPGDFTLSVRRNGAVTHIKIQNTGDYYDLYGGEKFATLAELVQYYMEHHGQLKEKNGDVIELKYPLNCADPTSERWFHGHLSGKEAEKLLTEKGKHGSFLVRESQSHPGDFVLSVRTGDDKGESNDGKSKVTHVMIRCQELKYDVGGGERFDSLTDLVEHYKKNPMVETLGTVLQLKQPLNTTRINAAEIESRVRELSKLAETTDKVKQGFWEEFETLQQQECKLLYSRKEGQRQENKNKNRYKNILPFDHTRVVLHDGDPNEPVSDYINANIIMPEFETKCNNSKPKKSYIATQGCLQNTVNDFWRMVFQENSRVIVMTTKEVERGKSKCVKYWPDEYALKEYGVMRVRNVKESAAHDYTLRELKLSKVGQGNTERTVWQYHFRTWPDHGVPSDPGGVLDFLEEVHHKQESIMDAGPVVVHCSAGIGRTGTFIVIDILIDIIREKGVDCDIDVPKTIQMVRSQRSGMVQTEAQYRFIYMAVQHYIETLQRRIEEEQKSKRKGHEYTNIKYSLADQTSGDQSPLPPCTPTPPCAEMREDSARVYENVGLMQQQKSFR

[3] = tested on: NCI—H3122 (non-small cell lung cancer cells); experiment: Combination growth inhibition (isobologram), NCI-H3122; type: cell-based; details: crizotinib (ALK inhibitor) combined with a SHP2 inhibitor of the instant disclosure, FIG. 1B
KYSE520 = experiment: Combination growth inhibition (isobologram), KYSE520; type: cell-based; details: erlotinib (EGFR inhibitor) combined with a SHP2 inhibitor of the instant disclosure; KYSE520 cells; FIG. 1A
[4] = tested on: NCI—N87 (gastric cancer cells); experiment: Combination growth inhibition (isobologram), NCI-N87; type: cell-based; details: selumetinib (MEK inhibitor) combined with a SHP2 inhibitor of the instant disclosure, FIG. 2A

Row | Compound | pIC50 (SHP2) | also measured
1 | C=CC(=O)N1CCN(c2ncnc3c(F)c(-c4c(O)cccc4F)c(Cl)cc23)CC1 [ARS-1620] |  | growth inhibition (isobologram) [1]: synergistic growth inhibition
2 | COc1cc(CCc2cc(NC(=O)c3ccc(N4CC(C)NC(C)C4)cc3)n[nH]2)cc(OC)c1 (centres unmarked) [AZD-4547] |  | growth inhibition (isobologram) [2]: synergistic growth inhibition
3 | Cc1nc2c(N3CCCCC3)n[nH]c2nc1N1CCC2(CC1)Oc1cc(F)ccc1[C@H]2N [Example 278, (3R)-6-fluoro-1′-[5-methyl-3-(piperidin-1-yl)-1H-Pyrazolo[3,4-b]pyrazin-6-yl]-3H-spiro[1-benzofuran-2,4′-piperidin]-3-amine] | ≥ 7.30 | 
4 | N[C@@H]1c2ccccc2C[C@]12CC[C@H](c1ccc(Sc3ccnc(Cl)c3Cl)nc1)CC2 [Example 279, (1s,3'S,4R)-4-{6-[(2,3-dichloropyridin-4-yl)sulfanyl]pyridin-3-yl}-1′,3′-dihydrospiro[cyclohexane-1,2′-inden]-3′-amine] | ≥ 7.30 | 
5 | N[C@H]1c2ccccc2C[C@]12CC[C@H](c1ccc(Sc3ccnc(Cl)c3Cl)nc1)CC2 [Example 280, (1s,1′R,4S)-4-(6-((2,3-dichloropyridin-4-yl)thio)pyridin-3-yl)-1′,3′-dihydrospiro[cyclohexane-1,2′-inden]-1′-amine] | ≥ 7.30 | 
6 | N[C@H]1c2ccccc2C[C@]12CC[C@@H](c1cnc(SCC3CC3)cn1)CC2 [Example 285, (1r, 4r)-4-{5-[(cyclopropylmethyl)sulfanyl]pyrazin-2-yl}-1′,3′-dihydrospiro[cyclohexane-1,2′-inden]-3′-amine] | ≥ 7.30 | 
7 | N[C@@H]1c2ccccc2CC12CCN(C(=O)c1csc(-c3c(Cl)cccc3Cl)n1)CC2 [Example 286, (1S)-1′-[2-(2,6-dichlorophenyl)-1,3-thiazole-4-carbonyl]-1,3-dihydrospiro[indene-2,4′-piperidin]-1-amine] | ≥ 7.30 | 
8 | COc1cccc(-n2ccc(C(=O)N3CCC4(CC3)Cc3ccccc3[C@H]4N)n2)c1 [Example 287, (1S)-1′-[1-(3-methoxyphenyl)-1H-pyrazole-3-carbonyl]-1,3-dihydrospiro[indene-2,4′-piperidin]-1-amine] | ≥ 7.30 | 
9 | COc1cccc(-n2nccc2C(=O)N2CCC3(CC2)Cc2ccccc2[C@H]3N)c1 [Example 288, (1S)-1′-[1-(3-methoxyphenyl)-1H-pyrazole-5-carbonyl]-1,3-dihydrospiro[indene-2,4′-piperidin]-1-amine] | < 5.00 | 
10 | N[C@@H]1c2ccccc2CC12CCN(C(=O)c1ccccc1Oc1ccccc1)CC2 [Example 292, (3S)-1′-(2-phenoxybenzoyl)-1,3-dihydrospiro[indene-2,4′-piperidin]-3-amine] | < 5.00 | 
11 | Cc1cc(-c2cccnc2)c(C)c(N2CCC3(CC2)Cc2ccccc2[C@H]3N)n1 [Example 294, (3S)-1′-{3′,6′-dimethyl-[3,4′-bipyridin]-2′-yl}-1,3-dihydrospiro[indene-2,4′-piperidin]-3-amine] | ≥ 7.30 | 
12 | C[C@@H](Oc1cc(-c2cnn(C3CCNCC3)c2)cnc1N)c1c(Cl)ccc(F)c1Cl [crizotinib] |  | growth inhibition (isobologram) [3]: synergistic growth inhibition
13 | C#Cc1cccc(Nc2ncnc3cc(OCCOC)c(OCCOC)cc23)c1 [erlotinib] |  | growth inhibition (isobologram) (KYSE520): synergistic growth inhibition
14 | Cn1cnc2c(F)c(Nc3ccc(Br)cc3Cl)c(C(=O)NOCCO)cc21 [selumetinib] |  | growth inhibition (isobologram) [4]: synergistic growth inhibition
